Common to all, as to format: cell-based
The test system of test [1] is human periosteum derived cells (hPDCs). In words: Gene expression of bone markers in hPDCs in 2D culture (Taqman PCR). The conditions noted are these: for iBSP mRNA levels: at the used concentrations (Ca 6 mM, Pi 4 mM). Here is the method:
Same experimental design as in A. C) Identification of factors involved in osteoblast maturation. hPDCs were treated with OM and TGFβ1 for 6 days, followed by stimulation with GM (negative control), GM containing six factors or GM supplement with six minus one factor for 4 days. The factors are ascorbic acid (Asc. Ac., 57 μM), TNFα (50 ng/ml), IL6 (10 ng/ml), EGF (20 ng/ml), Ca (6 mM) and Pi (4 mM). To evaluate osteoblast maturation, gene expression of RUNX2, OSX, DLX5, iBSP, OC and RANKL is measured with Taqman PCR. […] D) Gene expression of osteoblast markers in hPDCs treated with OM and TGFβ1 for one week followed by GM supplemented with a growth factor mix (GF) containing ascorbic acid (57 μM), EGF (20 ng/ml), IL6 (10 ng/ml), Ca (6 mM), and Pi (4 mM) (“GF+C6P4”) or the same mix with reduced Ca (3 mM) and Pi (2 mM) ions (“GF+C3P2”). Gene expression is expressed as fold increase as compared to the GM condition. (n=3, error bars: standard deviations, *p≦00.05, Mann-Whitney U test). E) Gene expression of osteoblast markers in hPDCs treated with OM/TGFβ1 for 10 days, or with GM supplemented with ascorbic acid, EGF, IL6, C3P2 for 10 days (“EGF/IL6/C3P2”), or sequential stimulation with OM/TGFβ1 for 6 days followed by GM supplemented with ascorbic acid, EGF, IL6, C3P2 (“EGF/IL6/C3P2”) for 4 days. Gene expression is expressed as fold increase as compared to hPDCs cultured in OM/TGFβ1 (n=3, error bars: standard deviations, *p≦00.05, Mann-Whitney U test).
Cell culture. Periosteum was harvested from four patients (male/female/age) and periosteal cells were enzymatically released from the matrix. Tissue culture plastic adherent cells were expanded in DMEM medium supplemented with 10% fetal bovine serum as described previously (6). For in vitro osteogenic differentiation assays, passage 6 to passage 9 hPDCs (pool of four different donors) were seeded at 3000 cells/cm^2 in either 96-well plates to assess proliferation and alkaline phosphatase activity or in the middle eight wells of a 24-well plate for quantifying gene expression.
Medium was changed every other day. Supplemental factors were TNFα, IL6 (R&D Systems, USA), TGFβ1 (Stem Cell Research, USA), Ascorbic Acid (Sigma,USA), Ca and Pi (SigmaUSA). Calcium and phosphate ion working solutions were prepared as described in (7).
Quantitative PCR. Complementary DNA (cDNA) was obtained by reverse transcription of […] of total RNA with Oligo (dT)20 as primer (Superscript Ill; Invitrogen, Merelbeke, Belgium). Sybr Green PCR was performed in 10 pl reaction in a Rotor-Gene-Q (Qiagen) with following protocol: 95° C. for 3 seconds, 60° C. for 20 seconds. Primer sequences for specific Sybr green PCR was performed with human specific primers (Table 5). Taqman PCR primer/probe combinations (Applied Biosystems) were used in the in vitro osteogenesis assays.
Statistical Analysis. Experiments were carried out in triplicate. The error bars represent the standard error of the mean when cells from multiple donors are used. Standard deviations are shown when experiments are performed with a hPDC cell pool (n=3). Statistical comparison between experimental conditions was performed with a Mann-Whitney U test. A p-value ≦0.05 was considered as being statistically significant.

Test [2] shares this test system. The experiment in a line: Proliferation of hPDCs in 2D culture (population doublings). The conditions noted are these: 8 days, eight factors minus one. Here is the method:
(§1) FIG. 8: A) Identification of factors that drive proliferation of hPDCs. A cell pool of hPDCs was either treated with growth medium (GM, negative control), medium containing eight factors (all factors) or medium containing eight minus one factor for 8 days. The factors are osteogenic medium (OM), calcium ions (Ca, 6 mM), phosphate ions (Pi, 4 mM), TNFα (50 ng/ml), IL6 (10 ng/ml), Wnt3A (50 ng/ml), EGF (20 ng/ml), and TGFβ1 (10 ng/ml). Proliferation is expressed as population doublings and was measured after 8 days after stimulation (n=3, error bars: standard deviation). The horizontal line is a reference line set on the proliferation in the “all factor” condition. B) Identification of factors that drive alkaline phosphatase activity in hPDCs. The percentage alkaline positive cells is used as a metric for early osteoblast differentiation.
Cell culture. Periosteum was harvested from four patients (male/female/age) and periosteal cells were enzymatically released from the matrix. […] For in vitro osteogenic differentiation assays, passage 6 to passage 9 hPDCs (pool of four different donors) were seeded at 3000 cells/cm^2 in either 96-well plates to assess proliferation and alkaline phosphatase activity or in the middle eight wells of a 24-well plate for quantifying gene expression. […]

Test [3] shares this test system. In words: Alkaline phosphatase activity / ALP staining in hPDCs. The method, then: as §1
FIG. 9: Gene expression of early (A) and late (B) bone markers in hPDCs treated with GM, OM or GM/OM supplemented with a growth factor mix (GF) containing TNFα, EGF, TGFβ1 and IL6. […]
Cell culture. […] For in vitro osteogenic differentiation assays, passage 6 to passage 9 hPDCs (pool of four different donors) were seeded at 3000 cells/cm^2 in either 96-well plates to assess proliferation and alkaline phosphatase activity or in the middle eight wells of a 24-well plate for quantifying gene expression. […]

Test [4] shares this test system. In words: ALP/Alizarin Red staining of calcium deposits (mineralization) on hPDCs. The conditions noted are these: hPDCs after OM and TGFβ1 one week, then 4 days. The source says: FIG. 9: Gene expression of early (A) and late (B) bone markers in hPDCs treated with GM, OM or GM/OM supplemented with a growth factor mix (GF) containing TNFα, EGF, TGFβ1 and IL6. C) ALP staining of hPDCs that were stimulated with OM and TGFβ1 for one week followed by GM with one factor in the absence or presence of ascorbic acid for 2 days. D) ALP/Alizarin Red staining to stain calcium deposits on hPDCs pre-treated with OM and TGFβ1 for one week followed by GM with six minus one factors for four days in the absence or presence of ascorbic acid.
To overcome the inhibitory effect of OM on later stages of osteoblastogenesis, we considered to explore a two stage protocol wherein hPDCs were treated with OM and TGFβ1 to stimulate proliferation and ALP activity. After six days, medium was changed to growth medium supplemented with six factors (ascorbic acid, TNFα, IL6, EGF, Ca, Pi) minus one factor for 4 days. At this stage, ascorbic acid was included as a factor, because it promoted ALP activity (FIG. 9C) and mineralization (FIG. 9D) in vitro. […] Gene expression levels of RUNX2 were decreased when ascorbic acid was omitted from the mix. […] Furthermore, EGF, calcium and phosphate were required for DLX5 transcription, but at the used concentrations, calcium and phosphate decreased iBSP mRNA levels (FIG. 8C).

The mark [5] stands for this setting: two stage protocol, six factors minus one, 4 days.

Consider `[Ca]` [calcium], for which the “iBSP mRNA levels” value in test [1] is recorded as “decreased”. In addition, the “role in DLX5 transcription” value in test [1] (setting [5]) is “required”.
For IL6: cytokine ligand, 10 ng/ml, the “RANKL expression in medium devoid of the factor” value (“RANKL expression” for short) in test [1] (setting [5]) is reported as “lower levels”.
For phosphate, the “iBSP mRNA levels” value in test [1] was “decreased”. Also, the “role in DLX5 transcription” value in test [1] (setting [5]) is recorded as “required”.
Turning to TGFβ1: growth factor ligand, 10 ng/ml, the “effect on proliferation (leave-one-out)” value in test [2] is “strong inducers”. Further, the “effect on ALP activity (leave-one-out)” value in test [3] (hPDCs, 8 days, eight factors minus one) is recorded as “strong inducers”.
Regarding TNFα, in test [1] (setting [5]), the “RANKL expression” value is given as “lower levels”; the “effect on osteogenic differentiation” value was “strong inhibitor”; the “expression levels of OSX, iBSP and OC when the factor was removed from the cocktail” value was “enhanced”.
Regarding `O=C1O[C@H]([C@@H](O)CO)C(O)=C1O` [ascorbic acid, reference compound], in test [1] (setting [5]), the “RANKL expression” value was “lower levels” and the “RUNX2 gene expression when the factor was omitted from the mix” value is “decreased”. Besides, the mineralization entry in test [4] is recorded as “promoted”. The “ALP activity (staining)” value in test [3] (hPDCs after OM and TGFβ1 one week, then GM with factor 2 days) is on record as “promoted”.

The values above are taken from patent US20150307846A1, “GROWTH FACTOR COCKTAIL TO ENHANCE OSTEOGENIC DIFFERENTIATION OF MESENCHYMAL CELLS” (University of Pennsylvania, priority 2012, published 2015).
